The subject of the assay is PD-L1. Description: PD-L1 expression in tumor cells in the CT26 model. The class given is in vivo, mouse. The text has this:
All BALB/c mice (Taconic, Hudson, N.Y., USA) were housed in Association for Assessment and Accreditation of Laboratory Animal Care approved facilities in static microisolator cages. Murine MSS-status colon carcinoma CT26 cells (ATCC CRL-2639) and murine breast carcinoma cells 4T1 (ATCC CRL-2539) were purchased from American Type Culture Collection (ATCC, Manassas, Va., USA), and grown in RPMI-1640 medium (ATCC) supplemented with 10% heat-inactivated fetal calf serum. After harvesting during exponential growth, tumors were initiated by subcutaneously implanting 3×10^5 CT26 tumor cells into the right dorsal flank of each 8-12 week old female BALB/c mouse. […] Body weight and clinical signs were monitored throughout the course of the treatment in accordance with the Institutional Animal Care and Use Committee approved protocols. Drug efficacy was analyzed by measuring tumor volume in mm^3 calculated by multiplying 0.5×width^2×length. […]
At the end of treatment, tumors were harvested from euthanized mice. […] After mounting in ProLong mounting medium containing DAPI (Invitrogen), the slides were examined on a Zeiss Axio Imager M2 upright fluorescence microscope with a 20× objective and analyzed with Zen software.

For `CC(=O)c1cc2c(o1)C(=O)c1ccccc1C2=O` [BBI608, 2-acetylnaphtho[2,3-b]furan-4,9-dione], the “PD-L1 expression in tumor cells” value was “reduced”.

(Values after patent US20180140572A1, “COMPOSITIONS COMPRISING A CANCER STEMNESS INHIBITOR AND AN IMMUNOTHERAPEUTIC AGENT FOR USE IN TREATING CANCER” (Boston Biomedical, Inc., priority 2015, published 2018).)
